Source: patent US9744173B2, “2-amino 6-methyl-4,4a,5,6-tetrahydropyrano[3,4-d][1,3]thiazin-8a(8H)-yl-1,3-thiazol-4-yl amides” (Pfizer Inc., priority 2014, dated 2017)

Experiments:
GSH Incubation Assay = assay type: in vitro ADME; settings: following incubations with glutathione
Experimental: GSH Incubation Assay: The test compound (10 μM in DMSO) was incubated with L-glutathione (50 mM, prepared in 100 mM postassium phosphate buffer) at 37° C. for 4 hours and then analyzed by HPLC-UV/MS/MS without work-up. Thermo Accela HPLC and Velos Pro Orbitrap Elite (S/N: SN05189B) operating in positive mode with a source voltage of 3.5 kV with data dependant processing. […] Product assignments were based on high resolution mass spectrometer fragmentation.

[1] = tested on: sAPPβ in H4 human neuroglioma cells over-expressing the wild-type human APP695; experiment: sAPPβ Whole-Cell Assay (WCA); assay type: cell-based; settings: 18 h
Experimental: sAPPβ Whole-Cell Assay (WCA): sAPPβ, the primary cleavage product of BACE1, was determined in H4 human neuroglioma cells over-expressing the wild-type human APP695. […] The colorimetric reaction was read by an EnVision (PerkinElmer) plate-reader.

human BACE2 = human BACE2 (Homo sapiens (Human), UniProt Q9Y5Z0); experiment: BACE2 binding assay (SPA), BACE2/BACE1 Binding Ratio; settings: ratio of IC50 from respective binding assays, pH 6.0
Experimental: BACE2/BACE1 Binding Ratio: The BACE1 and BACE2 binding assays measured beta-site amyloid precursor protein-cleaving enzyme (BACE) binding as a decrease in the counts of radioligand bound in a scintillation proximity assay (SPA). […] Full length human BACE1 or BACE2 over-expressed in HEK cells was prepared by Pfizer scientists. Frozen stock cell paste was reacted in 50 mM sodium acetate buffer (pH=6.0) containing 3H-(4aR,6R,8aS)-8a-(2,4-difluorophenyl)-6-(1-methyl-1H-pyrazol-4-yl)-4,4a,5,6,8,8a-hexahydropyrano[3,4-d][1,3]thiazin-2-amine ligand, SPA bead and 60 μM to 600 pM of test compound in an assay volume of 27 uL. The compound plate also contained positive (BACE inhibitor) and negative (DMSO) control wells. The binding was carried out at room temperature for 30 minutes and then the plates were read on a TriLux Microbeta reader to determine the number of counts bound.

Chain of human BACE2 (Q9Y5Z0 63-518): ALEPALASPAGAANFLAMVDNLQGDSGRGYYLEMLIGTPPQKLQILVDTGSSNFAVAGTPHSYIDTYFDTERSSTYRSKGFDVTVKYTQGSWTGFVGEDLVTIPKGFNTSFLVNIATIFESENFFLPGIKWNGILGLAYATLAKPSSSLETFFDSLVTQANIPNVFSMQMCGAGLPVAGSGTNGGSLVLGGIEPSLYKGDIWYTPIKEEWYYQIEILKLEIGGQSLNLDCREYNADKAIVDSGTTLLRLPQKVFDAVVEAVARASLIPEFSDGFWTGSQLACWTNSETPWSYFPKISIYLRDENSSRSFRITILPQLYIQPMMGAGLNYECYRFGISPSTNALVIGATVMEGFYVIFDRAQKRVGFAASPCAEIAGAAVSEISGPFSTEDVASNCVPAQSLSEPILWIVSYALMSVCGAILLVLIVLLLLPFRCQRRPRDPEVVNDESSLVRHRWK

Row | formation of GSH adducts (GSH Incubation Assay) | IC50 [1] | BACE2/BACE1 Binding Ratio (human BACE2) | Structure (SMILES)
1 | not detected |  |  | Cc1cc(OC(F)F)cnc1C(=O)Nc1csc([C@]23CO[C@@H](C)C[C@H]2CSC(N)=N3)n1 [Example 45, N-{2-[(4aR,6S,8aR)-2-amino-6-methyl-4,4a,5,6-tetrahydropyrano[3,4-d][1,3]thiazin-8a(8H)-yl]-1,3-thiazol-4-yl}-5-(difluoromethoxy)-3-methylpyridine-2-carboxamide]
2 |  | < 1 nM | 1.0 | NC1=N[C@@]2(c3cc(NC(=O)c4ccc(OC(F)F)cn4)ccc3F)CO[C@@H](C(F)(F)F)C[C@H]2CS1 [Comparator 6]
3 | not detected |  |  | C[C@H]1C[C@H]2CSC(N)=N[C@@]2(c2nc(NC(=O)c3cnc(OC(F)F)cn3)cs2)CO1 [Example 2, N-{2-[(4aR,6S,8aR)-2-amino-6-methyl-4,4a,5,6-tetrahydropyrano[3,4-d][1,3]thiazin-8a(8H)-yl]-1,3-thiazol-4-yl}-5-(difluoromethoxy)pyrazine-2-carboxamide]
4 | not detected |  |  | C[C@H]1C[C@H]2CSC(N)=N[C@@]2(c2nc(NC(=O)c3ccc(Cl)cn3)cs2)CO1 [Example 7, N-{2-[(4aR,6S,8aR)-2-amino-6-methyl-4,4a,5,6-tetrahydropyrano[3,4-d][1,3]thiazin-8a(8H)-yl]-1,3-thiazol-4-yl}-5-chloropyridine-2-carboxamide]
5 | not detected |  |  | C[C@H]1C[C@H]2CSC(N)=N[C@@]2(c2nc(NC(=O)c3ccc(OC(F)F)cn3)cs2)CO1 [Example 1, N-{2-[(4aR,6S,8aR)-2-amino-6-methyl-4,4a,5,6-tetrahydropyrano[3,4-d][1,3]thiazin-8a(8H)-yl]-1,3-thiazol-4-yl}-5-(difluoromethoxy)pyridine-2-carboxamide]
6 |  | < 1 nM | 1.0 | C[C@H]1C[C@H]2CSC(N)=N[C@@]2(c2cc(NC(=O)c3ccc(Cl)cn3)ccc2F)CO1 [Comparator 7]
